Test results reported in ChEMBL document CHEMBL5046268, “Synthesis, Biological Evaluation, and Molecular Modeling Studies of 3,4-Diarylpyrazoline Series of Compounds as Potent, Nonbrain Penetrant Antagonists of Cannabinoid-1 (CB1R) Receptor with Reduced Lipophilicity” (J Med Chem, 2022).
pIC50, pKi: −log10 of the molar value. Calls of active or inactive are those of the source. The rule behind the calls is not given here.

Tests used:
Cannabinoid receptor 2 = Cannabinoid receptor 2 (Homo sapiens, UniProt P34972); assay: Displacement of [3H]- CP55940 from human CB2R expressed in CHO-K1 cells membrane by Cheng-Prusoff equation analysis; format: cell membranes, Cell membrane; conditions: for pKi: read-out: Ki
Sequence of Cannabinoid receptor 2 (P34972 whole entry): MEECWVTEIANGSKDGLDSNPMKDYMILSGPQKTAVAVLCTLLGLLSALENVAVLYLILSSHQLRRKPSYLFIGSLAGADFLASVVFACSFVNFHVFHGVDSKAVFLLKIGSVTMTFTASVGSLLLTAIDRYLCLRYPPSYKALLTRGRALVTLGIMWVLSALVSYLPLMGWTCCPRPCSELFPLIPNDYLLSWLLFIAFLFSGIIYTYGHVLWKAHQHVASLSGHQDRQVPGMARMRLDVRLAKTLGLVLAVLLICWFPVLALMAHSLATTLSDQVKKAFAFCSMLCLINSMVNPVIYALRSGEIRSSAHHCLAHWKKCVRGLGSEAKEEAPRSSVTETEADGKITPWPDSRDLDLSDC

Cannabinoid receptor 1 [1] = biological target: T1, Cannabinoid receptor 1 (Homo sapiens, UniProt P21554); assay: Displacement of [3H]- CP55940 from human CB1R expressed in CHO-K1 cells membrane by Cheng-Prusoff equation analysis; format: cell membranes, Cell membrane; conditions: for pKi: read-out: Ki
T1 sequence (P21554 whole entry): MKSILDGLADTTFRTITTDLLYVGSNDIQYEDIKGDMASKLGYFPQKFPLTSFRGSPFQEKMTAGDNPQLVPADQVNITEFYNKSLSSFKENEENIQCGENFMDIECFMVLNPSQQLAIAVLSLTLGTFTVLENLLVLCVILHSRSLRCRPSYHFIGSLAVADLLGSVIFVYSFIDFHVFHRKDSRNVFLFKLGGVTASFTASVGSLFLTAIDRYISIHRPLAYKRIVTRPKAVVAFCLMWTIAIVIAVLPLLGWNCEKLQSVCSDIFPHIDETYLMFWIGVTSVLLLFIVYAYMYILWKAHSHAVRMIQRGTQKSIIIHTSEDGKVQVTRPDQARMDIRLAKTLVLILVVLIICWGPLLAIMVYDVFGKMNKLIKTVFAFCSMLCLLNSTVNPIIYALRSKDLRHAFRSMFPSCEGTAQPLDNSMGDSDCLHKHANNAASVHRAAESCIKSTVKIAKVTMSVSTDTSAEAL

[2] = biological target: Nitric oxide synthase, inducible (Homo sapiens) (UniProt P35228); assay: Inhibition of recombinant iNOS (unknown origin) assessed as reduction in L-[3H]-citrulline level using L-[3H]-arginine as substrate at 10 uM by Enzymatic NOS activity assay
Sequence of Nitric oxide synthase, inducible (Homo sapiens) (P35228 whole entry): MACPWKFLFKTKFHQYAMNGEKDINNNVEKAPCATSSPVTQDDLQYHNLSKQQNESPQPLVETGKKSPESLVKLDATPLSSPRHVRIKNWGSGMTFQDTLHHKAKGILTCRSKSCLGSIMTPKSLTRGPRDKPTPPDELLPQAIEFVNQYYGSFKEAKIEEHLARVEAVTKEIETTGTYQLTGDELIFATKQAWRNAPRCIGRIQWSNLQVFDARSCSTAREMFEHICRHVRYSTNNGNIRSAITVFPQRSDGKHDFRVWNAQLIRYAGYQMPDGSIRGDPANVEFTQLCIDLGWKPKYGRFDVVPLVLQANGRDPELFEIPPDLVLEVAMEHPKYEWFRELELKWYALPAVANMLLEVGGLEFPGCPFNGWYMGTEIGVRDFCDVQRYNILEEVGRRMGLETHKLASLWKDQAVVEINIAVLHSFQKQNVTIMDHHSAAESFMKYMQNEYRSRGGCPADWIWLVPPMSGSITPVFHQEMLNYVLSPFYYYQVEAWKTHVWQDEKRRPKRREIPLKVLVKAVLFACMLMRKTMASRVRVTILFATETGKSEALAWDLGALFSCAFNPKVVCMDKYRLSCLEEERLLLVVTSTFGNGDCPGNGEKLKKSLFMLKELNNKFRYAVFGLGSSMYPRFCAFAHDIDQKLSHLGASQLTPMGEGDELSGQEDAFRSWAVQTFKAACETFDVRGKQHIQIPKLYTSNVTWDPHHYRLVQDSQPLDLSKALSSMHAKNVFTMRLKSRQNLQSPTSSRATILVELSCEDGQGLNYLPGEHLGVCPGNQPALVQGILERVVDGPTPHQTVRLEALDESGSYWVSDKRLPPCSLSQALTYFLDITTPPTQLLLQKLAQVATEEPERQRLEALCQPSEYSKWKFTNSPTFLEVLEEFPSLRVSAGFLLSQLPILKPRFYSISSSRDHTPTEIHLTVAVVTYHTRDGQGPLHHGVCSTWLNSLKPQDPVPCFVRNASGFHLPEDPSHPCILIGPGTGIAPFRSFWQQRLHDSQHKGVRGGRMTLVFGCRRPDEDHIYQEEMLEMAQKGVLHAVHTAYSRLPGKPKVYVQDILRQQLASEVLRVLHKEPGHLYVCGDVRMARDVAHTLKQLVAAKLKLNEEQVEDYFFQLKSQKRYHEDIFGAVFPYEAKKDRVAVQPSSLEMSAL

Cannabinoid receptor 1 [3] = biological target: T1, Cannabinoid receptor 1; assay: Antagonist activity at human CB1R expressed in CHO-K1 cell membranes assessed as stimulation of [35S]-GTPgammaS binding by liquid scintillation counting method; format: functional, Cell membrane; conditions: for pIC50: read-out: IC50; for IC50: cho-k1
Mus musculus [4] = assay: Anti-obesity activity in high fat diet-induced obese C57BL/6J mouse assessed as reduction in body weight at 3 mg/kg, ip dosed daily for 1 week; format: functional; conditions: 168 h, time 1 weeks
Cannabinoid receptor 1 [5] = biological target: T1, Cannabinoid receptor 1; assay: Inverse agonist activity at human CB1R expressed in CHO-K1 cell membrane assessed as […] in [35S]GTPgammaS binding; format: functional, cell membranes
Mus musculus [6] = assay: Anti-obesity activity in high fat diet-induced obese C57BL/6J mouse assessed as reduction in food intake at 3 mg/kg, ip dosed daily for 1 week; format: functional, organism-based; conditions: time 1.0 weeks
[7] = Protein binding in human plasma assessed as […] at 5 uM for 4 hrs by LC-MS/MS analysis; format: ADME, cell-free; conditions: read-out: PPB
[8] = Microsomal stability in C57BL/6J mouse liver microsomes assessed as half life at 3 mg/kg, ip by LC-MS/MS analysis; format: ADME, Microsome
[9] = Microsomal stability in human liver microsomes assessed as half life at 3 mg/kg, ip by LC-MS/MS analysis; format: ADME, Microsome
[10] = Stability in C57BL/6J mouse plasma assessed as half life at 3 mg/kg, ip by LC-MS/MS analysis; format: ADME, organism-based
[11] = Protein binding in mouse plasma assessed as […] at 5 uM and incubated for 4 hrs by LC-MS/MS analysis; format: ADME, cell-free; conditions: read-out: PPB
[12] = Drug distribution in C57BL/6J mouse brain at 10 mg/kg, ip incubated for 1 hrs by LC/MS/MS analysis; format: ADME, organism-based; conditions: in vivo
[13] = Drug distribution in C57BL/6J mouse plasma at 10 mg/kg, ip incubated for 1 hrs by LC/MS/MS analysis; format: ADME, organism-based; conditions: in vivo
[14] = Ratio of drug level in C57BL/6J mouse brain to plasma at 10 mg/kg, ip incubated for 1 hrs by LC/MS/MS analysis; format: ADME, organism-based; conditions: read-out: BPR
[15] = Drug distribution in C57BL/6J mouse liver at 10 mg/kg, ip incubated for 1 hrs by LC/MS/MS analysis; format: ADME, organism-based; conditions: in vivo
Mus musculus [16] = assay: Anti-obesity activity in high fat diet-induced obese C57BL/6J mouse assessed as reduction in body weight at 10 mg/kg, ip measured every daily for 1 weeks; format: functional; conditions: 168 h
Mus musculus [17] = assay: Anti-obesity activity in high fat diet-induced obese C57BL/6J mouse assessed as reduction in food intake at 10 mg/kg, ip measured every daily for 1 weeks; format: functional, organism-based

Row | Structure (SMILES) | pKi (Cannabinoid receptor 2) | pKi (Cannabinoid receptor 1 [1]) | pIC50 (Cannabinoid receptor 1 [3]) | other results
1 | C/C(N)=N\C(=N\S(=O)(=O)N1CCCCC1)N1C[C@H](c2ccccc2)C(c2ccc(Cl)cc2)=N1 | 7.37 | 8.80 | 8.40 | inhibition in vivo at 3 mg/kg (Mus musculus [4]): 8%; pIC50 (Cannabinoid receptor 1 [5]): 8.70; Activity (Mus musculus [6]): Active; fraction unbound at 4 h, 5 µM [7]: ≤ 0.006; half-life [8]: > 2 min; half-life [9]: > 2 min; half-life [10]: < 120 min; fraction unbound at 4 h, 5 µM [11]: ≤ 0.006
2 | CS/C(N)=N/C(=N/S(=O)(=O)N1CCC(C(F)(F)F)CC1)N1CC(c2ccccc2)C(c2ccc(Cl)cc2)=N1 (configuration not stated) | < 7.00 | 8.62 | 8.44 | Drug uptake [12]: Active; Drug uptake [13]: Active; Kp at 1 h [14]: 0.036; Drug uptake [15]: Active
3 | C/C(N)=N/C(=N/S(=O)(=O)N1CCC(C(F)(F)F)CC1)N1CC(c2ccccc2)C(c2ccc(Cl)cc2)=N1 (configuration not stated) | < 7.00 | 8.41 | 6.56 | –
4 | CCN(CC)S(=O)(=O)/N=C(/N=C(/C)N)N1CC(c2ccccc2)C(c2ccc(Cl)cc2)=N1 (configuration not stated) | < 7.00 | 8.23 | 8.72 | Drug uptake [12]: Active; Drug uptake [13]: Active; Kp at 1 h [14]: 0.025; inhibition [2]: Active; Drug uptake [15]: Active
5 | CS/C(N)=N\C(=N\S(=O)(=O)N1CCCCC1)N1CC(c2ccccc2)C(c2ccc(Cl)cc2)=N1 (configuration not stated) | < 7.00 | 7.82 | 6.78 | –
6 | CC(C)(C)/C(N)=N/C(=N/S(=O)(=O)N1CCOCC1)N1CC(c2ccccc2)C(c2ccc(Cl)cc2)=N1 (configuration not stated) | < 6.00 | < 7.00 | 7.47 | –
7 | CCN(CC)S(=O)(=O)/N=C(/N=C(\N)SC)N1CC(c2ccccc2)C(c2ccc(Cl)cc2)=N1 (configuration not stated) | 7.15 | 7.89 | 6.41 | inhibition [2]: Active
8 | CCN(CC)S(=O)(=O)/N=C(/N=C(\N)C(C)(C)C)N1CC(c2ccccc2)C(c2ccc(Cl)cc2)=N1 (configuration not stated) | < 6.00 | 8.00 | 6.43 | inhibition [2]: Active
9 | CCN(CC)S(=O)(=O)/N=C(/N=C(/C)N)N1C[C@@H](c2ccccc2)C(c2ccc(Cl)cc2)=N1 | – | – | – | Ki (Cannabinoid receptor 2; cho-k1): Not Active; Ki (Cannabinoid receptor 1 [1]; cho-k1): Not Active; IC50 (Cannabinoid receptor 1 [3]): Not Active
10 | CC(C)(C)/C(N)=N/C(=N/S(=O)(=O)N1CCC(C(F)(F)F)CC1)N1CC(c2ccccc2)C(c2ccc(Cl)cc2)=N1 (configuration not stated) | < 7.00 | 8.96 | 8.70 | Drug uptake [12]: Active; pIC50 (Cannabinoid receptor 1 [5]): 8.74; Drug uptake [13]: Active; Kp at 1 h [14]: 0.15; Drug uptake [15]: Active
11 | CS/C(N)=N/C(=N/S(=O)(=O)N1CCOCC1)N1CC(c2ccccc2)C(c2ccc(Cl)cc2)=N1 (configuration not stated) | < 6.00 | 7.39 | 7.04 | –
12 | CS/C(N)=N/C(=N/S(=O)(=O)N1CCC(C(F)(F)F)CC1)N1C[C@@H](c2ccccc2)C(c2ccc(Cl)cc2)=N1 | < 6.00 | < 6.00 | – | IC50 (Cannabinoid receptor 1 [3]): Not Active
13 | CC(C)(C)/C(N)=N\C(=N\S(=O)(=O)N1CCCCC1)N1CC(c2ccccc2)C(c2ccc(Cl)cc2)=N1 (configuration not stated) | < 6.00 | 7.64 | 6.89 | –
14 | CC(C)(C)/C(N)=N/C(=N/S(=O)(=O)N1CCCC1)N1CC(c2ccccc2)C(c2ccc(Cl)cc2)=N1 (configuration not stated) | < 6.00 | < 6.00 | 7.21 | inhibition [2]: Active
15 | CC(C)(C)/C(N)=N/C(=N/S(=O)(=O)N1CCC(F)(F)CC1)N1CC(c2ccccc2)C(c2ccc(Cl)cc2)=N1 (configuration not stated) | < 6.00 | 7.68 | 8.00 | Drug uptake [12]: Active; pIC50 (Cannabinoid receptor 1 [5]): 8.49; Drug uptake [13]: Active; Kp at 1 h [14]: 0.14; Drug uptake [15]: Active
16 | CS/C(N)=N/C(=N/S(=O)(=O)N1CCC(C(F)(F)F)CC1)N1C[C@H](c2ccccc2)C(c2ccc(Cl)cc2)=N1 | 6.48 | 9.15 | 8.70 | inhibition in vivo at 10 mg/kg (Mus musculus [16]): 8%; pIC50 (Cannabinoid receptor 1 [5]): 8.80; fraction unbound at 4 h, 5 µM [7]: ≤ 0.006; Activity (Mus musculus [17]): Active; half-life [10]: < 120 min; fraction unbound at 4 h, 5 µM [11]: ≤ 0.006
17 | CCN(CC)S(=O)(=O)/N=C(/N=C(/C)N)N1C[C@H](c2ccccc2)C(c2ccc(Cl)cc2)=N1 | 7.18 | 8.92 | 8.92 | inhibition in vivo at 10 mg/kg (Mus musculus [16]): 8%; pIC50 (Cannabinoid receptor 1 [5]): 9.10; fraction unbound at 4 h, 5 µM [7]: ≤ 0.006; Activity (Mus musculus [17]): Active; half-life [8]: > 2 min; half-life [9]: > 2 min; half-life [10]: < 120 min; fraction unbound at 4 h, 5 µM [11]: ≤ 0.006

Further lines, with some results ahead:

Row | pKi (Cannabinoid receptor 2) | pKi (Cannabinoid receptor 1 [1]) | pIC50 (Cannabinoid receptor 1 [3]) | Structure (SMILES) | other results
18 | < 6.00 | 8.13 | 6.86 | C/C(N)=N/C(=N/S(=O)(=O)N1CCCC1)N1CC(c2ccccc2)C(c2ccc(Cl)cc2)=N1 (configuration not stated) | inhibition [2]: Active
19 | < 6.00 | 8.26 | 6.97 | CCN(CC)S(=O)(=O)/N=C(/N=C(\N)c1ccc(F)cc1)N1CC(c2ccccc2)C(c2ccc(Cl)cc2)=N1 (configuration not stated) | inhibition [2]: Active
20 | < 6.00 | 6.21 | – | C/C(N)=N\C(=N\S(=O)(=O)N1CCCCC1)N1C[C@@H](c2ccccc2)C(c2ccc(Cl)cc2)=N1 | IC50 (Cannabinoid receptor 1 [3]): Not Active
21 | 7.15 | 7.97 | 7.07 | CCN(CC)S(=O)(=O)/N=C(/N=C(\N)c1ccc(Cl)cc1)N1CC(c2ccccc2)C(c2ccc(Cl)cc2)=N1 (configuration not stated) | inhibition [2]: Active
22 | < 7.00 | 8.52 | 7.24 | C/C(N)=N\C(=N\S(=O)(=O)N1CCCCC1)N1CC(c2ccccc2)C(c2ccc(Cl)cc2)=N1 (configuration not stated) | Drug uptake [12]: Active; Drug uptake [13]: Active; Kp at 1 h [14]: 0.04; Drug uptake [15]: Active
23 | < 6.00 | 8.26 | 8.38 | N/C(=N\C(=N\S(=O)(=O)N1CCC(F)(F)CC1)N1CC(c2ccccc2)C(c2ccc(Cl)cc2)=N1)c1ccc(Cl)cc1 (configuration not stated) | Drug uptake [12]: Active; pIC50 (Cannabinoid receptor 1 [5]): 8.60; Drug uptake [13]: Active; Kp at 1 h [14]: 0.14; Drug uptake [15]: Active
24 | 7.44 | 8.19 | 8.40 | N/C(=N/C(=N/S(=O)(=O)N1CCCCC1)N1CC(c2ccccc2)C(c2ccc(Cl)cc2)=N1)c1ccc(F)cc1 (configuration not stated) | –
25 | < 7.00 | 8.47 | 7.82 | C/C(N)=N\C(=N\S(=O)(=O)N1CCC(F)(F)CC1)N1CC(c2ccccc2)C(c2ccc(Cl)cc2)=N1 (configuration not stated) | –
26 | < 6.00 | 7.72 | 7.60 | N/C(=N\C(=N\S(=O)(=O)N1CCOCC1)N1CC(c2ccccc2)C(c2ccc(Cl)cc2)=N1)c1ccc(Cl)cc1 (configuration not stated) | –
27 | < 6.00 | 7.12 | 6.37 | N/C(=N\C(=N\S(=O)(=O)N1CCCC1)N1CC(c2ccccc2)C(c2ccc(Cl)cc2)=N1)c1ccc(Cl)cc1 (configuration not stated) | inhibition [2]: Active
28 | 7.70 | 8.26 | 8.27 | N/C(=N\C(=N\S(=O)(=O)N1CCC(C(F)(F)F)CC1)N1CC(c2ccccc2)C(c2ccc(Cl)cc2)=N1)c1ccc(Cl)cc1 (configuration not stated) | –
29 | < 6.00 | 7.51 | 7.20 | C/C(N)=N/C(=N/S(=O)(=O)N1CCOCC1)N1CC(c2ccccc2)C(c2ccc(Cl)cc2)=N1 (configuration not stated) | –
30 | < 6.00 | 7.64 | 6.34 | CS/C(N)=N/C(=N/S(=O)(=O)N1CCCC1)N1CC(c2ccccc2)C(c2ccc(Cl)cc2)=N1 (configuration not stated) | inhibition [2]: Active
31 | 7.77 | 8.11 | 8.22 | N/C(=N/C(=N/S(=O)(=O)N1CCCCC1)N1CC(c2ccccc2)C(c2ccc(Cl)cc2)=N1)c1ccc(Cl)cc1 (configuration not stated) | –
32 | 7.55 | 8.48 | 8.36 | N/C(=N\C(=N\S(=O)(=O)N1CCC(F)(F)CC1)N1CC(c2ccccc2)C(c2ccc(Cl)cc2)=N1)c1ccc(F)cc1 (configuration not stated) | –
33 | < 6.00 | 7.40 | 7.72 | N/C(=N\C(=N\S(=O)(=O)N1CCOCC1)N1CC(c2ccccc2)C(c2ccc(Cl)cc2)=N1)c1ccc(F)cc1 (configuration not stated) | –
34 | < 6.00 | 7.98 | 6.94 | N/C(=N\C(=N\S(=O)(=O)N1CCCC1)N1CC(c2ccccc2)C(c2ccc(Cl)cc2)=N1)c1ccc(F)cc1 (configuration not stated) | inhibition [2]: Active
35 | < 7.00 | 7.85 | 6.90 | CS/C(N)=N\C(=N\S(=O)(=O)N1CCC(F)(F)CC1)N1CC(c2ccccc2)C(c2ccc(Cl)cc2)=N1 (configuration not stated) | –
36 | 7.85 | 7.70 | 8.56 | N/C(=N\C(=N\S(=O)(=O)N1CCC(C(F)(F)F)CC1)N1CC(c2ccccc2)C(c2ccc(Cl)cc2)=N1)c1ccc(F)cc1 (configuration not stated) | –
